The values that follow come from patent US20230143612A1 (Arbutus Biopharma Corporation, priority 2020, published 2023).

Structures are written as SMILES.

Sequence of PD-L1 His protein / PD-1 Fc protein (Q9NZQ7 19-238 limits assumed): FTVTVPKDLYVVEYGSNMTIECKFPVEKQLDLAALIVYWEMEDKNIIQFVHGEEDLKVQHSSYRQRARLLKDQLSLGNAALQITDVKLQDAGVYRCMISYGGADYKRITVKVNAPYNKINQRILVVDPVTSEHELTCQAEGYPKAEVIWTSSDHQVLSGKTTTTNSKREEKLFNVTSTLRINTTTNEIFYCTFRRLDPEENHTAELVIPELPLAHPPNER

The assay addresses PD-L1 His protein / PD-1 Fc protein (Homo sapiens, UniProt Q9NZQ7). Kind of assay: HTRF Assay (PD-1/PD-L1 interaction). Format: binding. The note with it: PD-L1 His 6 nM, PD-1 Fc 6 nM. An outline of the steps:
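Compounds tested from 20 μM down to 0.001 μM (3-fold) against 6 nM PD-L1 His and 6 nM PD-1 Fc, 15 min room temperature incubation. Detection after 1 h at room temperature with Tb cryptate anti-6HIS and XL665 anti-human IgG reagents (mixture at 0.35 nM and 6.7 nM), HTRF signal.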
As to `COc1nc(-c2cccc(-c3cccc(-c4cc5c(=O)n(C)c(CNC[C@@H]6CCC(=O)N6)nn5c4)c3Cl)c2Cl)ccc1CNC[C@@H]1CCC(=O)N1` [Example 331, 6-(2,2′-Dichloro-3′-(6-methoxy-5-(((((S)-5-oxopyrrolidin-2-yl)methyl)amino)methyl)pyridin-2-yl)-[1,1′-biphenyl]-3-yl)-3-methyl-2-(((((S)-5-oxopyrrolidin-2-yl)methyl)amino)methyl)pyrrolo[2,1-f][1,2,4]triazin-4(3H)-one], the IC50 worked out at 310 nM.
The compound `COc1nc(-c2cccc(-c3cccc(-c4cc5c(=O)n(C)c(CN[C@H]6C[C@](C)(O)C6)nn5c4)c3Cl)c2Cl)ccc1CNC[C@@H]1CCC(=O)N1` [Example 332, 6-(2,2′-Dichloro-3′-(6-methoxy-5-(((((S)-5-oxopyrrolidin-2-yl)methyl)amino)methyl)pyridin-2-yl)-[1,1′-biphenyl]-3-yl)-2-((((1r,3r)-3-hydroxy-3-methylcyclobutyl)amino)methyl)-3-methylpyrrolo[2,1-f][1,2,4]triazin-4(3H)-one] came in with an IC50 of 500 nM.
The compound `COc1nc(-c2cccc(-c3cccc(-c4cc5ncc(CNC[C@H](C)O)cc5cn4)c3Cl)c2Cl)ccc1CNC[C@@H]1CCC(=O)N1` [Example 333, (S)-5-((((6-(2,2′-Dichloro-3′-(3-((((S)-2-hydroxypropyl)amino)methyl)-1,6-naphthyridin-7-yl)-[1,1′-biphenyl]-3-yl)-2-methoxypyridin-3-yl)methyl)amino)methyl)pyrrolidin-2-one] displayed a half-inhibitory concentration (IC50) of 0.7 nM. This IC50 is about 710-fold lower than that of the compound before.
The figure for `COc1nc(-c2cccc(-c3cccc(-c4cc5ncc(CNCCO)cc5cn4)c3Cl)c2Cl)ccc1CNC[C@@H]1CCC(=O)N1` [Example 334, (S)-5-((((6-(2,2′-Dichloro-3′-(3-(((2-hydroxyethyl)amino)methyl)-1,6-naphthyridin-7-yl)-[1,1′-biphenyl]-3-yl)-2-methoxypyridin-3-yl)methyl)amino)methyl)pyrrolidin-2-one] is 0.1 nM; for `COc1nc(-c2cccc(-c3cccc(-c4ccn5c(=O)c(CNC[C@@H]6CCC(=O)N6)cnc5c4)c3Cl)c2Cl)cc(Cl)c1CNC[C@@H]1CCC(=O)N1` [Example 335, 8-[2-Chloro-3-[2-chloro-3-[4-chloro-6-methoxy-5-[[[(2S)-5-oxopyrrolidin-2-yl]methylamino]methyl]-2-pyridyl]phenyl]phenyl]-3-[[[(2S)-5-oxopyrrolidin-2-yl]methylamino]methyl]pyrido[1,2-a]pyrimidin-4-one] it is 2.1 nM; for `COc1nc(-c2cccc(-c3cccc(-c4ccn5c(=O)c(CNC[C@@H](O)CC(=O)N(C)C)cnc5c4)c3Cl)c2Cl)cc(F)c1CNC[C@@H]1CCC(=O)N1` [Example 336, (3S)-4-[[8-[2-Chloro-3-[2-chloro-3-[4-fluoro-6-methoxy-5-[[[(2S)-5-oxopyrrolidin-2-yl]methylamino]methyl]-2-pyridyl]phenyl]phenyl]-4-oxo-pyrido[1,2-a]pyrimidin-3-yl]methylamino]-3-hydroxy-N,N-dimethyl-butanamide] it is 0.1 nM.
The figure for `COc1cc(Cl)c(CNC[C@H]2CCC(=O)N2)c(-c2cccc(-c3cccc(-c4ccn5c(=O)c(CNC[C@@H]6CCC(=O)N6)cnc5c4)c3Cl)c2Cl)n1` [Example 337, 8-[2-chloro-3-[2-chloro-3-[4-chloro-6-methoxy-3-[[[(2R)-5-oxopyrrolidin-2-yl]methylamino]methyl]-2-pyridyl]phenyl]phenyl]-3-[[[(2S)-5-oxopyrrolidin-2-yl]methylamino]methyl]pyrido[1,2-a]pyrimidin-4-one] is 47 nM; for `COc1nc(-c2cccc(-c3cccc(-c4ccc5nc(CNC[C@@H]6CCC(=O)N6)cn5n4)c3Cl)c2Cl)ccc1CNC[C@@H]1CCC(=O)N1` [Example 338, (5S)-5-[[[6-[2-Chloro-3-[2-chloro-3-[2-[[[(2S)-5-oxopyrrolidin-2-yl]methylamino]methyl]imidazo[1,2-b]pyridazin-6-yl]phenyl]phenyl]-2-methoxy-3-pyridyl]methylamino]methyl]pyrrolidin-2-one] it is 0.3 nM; for `COc1nc(-c2cccc(-c3cccc(-c4ccc5nc(CN(C)CCO)cn5n4)c3Cl)c2Cl)ccc1CN(C)CCO` [Example 339, 2-[[6-[2-Chloro-3-[2-chloro-3-[2-[[2-hydroxyethyl(methyl)amino]methyl]imidazo[1,2-b]pyridazin-6-yl]phenyl]phenyl]-2-methoxy-3-pyridyl]methyl-methyl-amino]etanol] it is 26 nM.
Consider `COc1nc(-c2cccc(-c3cccc(-c4ccc5nc(CNC[C@H](C)O)cn5n4)c3Cl)c2Cl)ccc1CNC[C@H](C)O` [Example 340, (2S)-1-[[6-[2-Chloro-3-[2-chloro-3-[2-[[[(2S)-2-hydroxypropyl]amino]methyl]imidazo[1,2-b]pyridazin-6-yl]phenyl]phenyl]-2-methoxy-3-pyridyl]methylamino]propan-2-ol], for which the IC50 came out at 3.5 nM.
As to `CNC(=O)C(C)(C)NCc1cc(=O)n2ccc(-c3cccc(-c4cccc(-c5ccc(CNC[C@@H]6CCC(=O)N6)c(OC)n5)c4Cl)c3Cl)cc2n1` [Example 341, (S)-2-(((8-(2,2′-Dichloro-3′-(6-methoxy-5-((((5-oxopyrrolidin-2-yl)methyl)amino)methyl)pyridin-2-yl)-[1,1′-biphenyl]-3-yl)-4-oxo-4H-pyrido[1,2-a]pyrimidin-2-yl)methyl)amino)-N,2-dimethylpropanamide], the half-maximal inhibitory concentration (IC50) came out at 0.1 nM.
Turning to `COc1nc(-c2cccc(-c3cccc(-c4ccn5c(=O)cc(CN6C[C@@H](O)CC6=O)nc5c4)c3Cl)c2Cl)ccc1CNC[C@@H]1CCC(=O)N1` [Example 342, 8-(2,2′-Dichloro-3′-(6-methoxy-5-(((((S)-5-oxopyrrolidin-2-yl)methyl)amino)methyl)pyridin-2-yl)-[1,1′-biphenyl]-3-yl)-2-(((S)-4-hydroxy-2-oxopyrrolidin-1-yl)methyl)-4H-pyrido[1,2-a]pyrimidin-4-one], the IC50 is 0.1 nM. This lies in the sub-nanomolar range.
In turn, `COC(=O)C1CN(Cc2cc(=O)n3ccc(-c4cccc(-c5cccc(-c6ccc(CNC[C@@H]7CCC(=O)N7)c(OC)n6)c5Cl)c4Cl)cc3n2)C1` [Example 343, (S)-Methyl 1-((8-(2,2′-dichloro-3′-(6-methoxy-5-((((5-oxopyrrolidin-2-yl)methyl)amino)methyl)pyridin-2-yl)-[1,1′-biphenyl]-3-yl)-4-oxo-4H-pyrido[1,2-a]pyrimidin-2-yl)methyl) azetidine-3-carboxylate] had a concentration for half-maximal inhibition (IC50) of 0.1 nM. That is a sub-nanomolar value.
`COc1nc(-c2cccc(-c3cccc(-c4ccc5c(c4)CCCNC5)c3Cl)c2Cl)ccc1CNC[C@@H]1CCC(=O)N1` [Example 344, (S)-5-((((6-(2,2′-Dichloro-3′-(2,3,4,5-tetrahydro-1H-benzo[c]azepin-7-yl)-[1,1′-biphenyl]-3-yl)-2-methoxypyridin-3-yl)methyl)amino)methyl)pyrrolidin-2-one] registered a half-maximal inhibitory concentration (IC50) of 570 nM. Compared with the last compound, the IC50 is about 5700-fold higher.
The figure for `COc1nc(-c2cccc(-c3cccc(-c4ccn5c(=O)c(CNCC(C)(C)OC)cnc5c4)c3Cl)c2Cl)ccc1CNC[C@@H]1CCC(=O)N1` [Example 345, (S)-8-(2,2′-Dichloro-3′-(6-methoxy-5-((((5-oxopyrrolidin-2-yl)methyl)amino)methyl)pyridin-2-yl)-[1,1′-biphenyl]-3-yl)-3-(((2-methoxy-2-methylpropyl)amino)methyl)-4H-pyrido[1,2-a]pyrimidin-4-one] is 42 nM; for `COc1nc(-c2cccc(-c3cccc(-c4ccn5c(=O)c(CN6CC7(CC(O)C7)C6)cnc5c4)c3Cl)c2Cl)ccc1CNC[C@@H]1CCC(=O)N1` [Example 346, (S)-8-(2,2′-Dichloro-3′-(6-methoxy-5-((((5-oxopyrrolidin-2-yl)methyl)amino)methyl)pyridin-2-yl)-[1,1′-biphenyl]-3-yl)-3-((6-hydroxy-2-azaspiro[3.3]heptan-2-yl)methyl)-4H-pyrido[1,2-a]pyrimidin-4-one] it is 1300 nM.
To `COc1nc(-c2cccc(-c3cccc(-c4ccn5c(=O)c(CN6C[C@@H](O)[C@H](O)C6)cnc5c4)c3Cl)c2Cl)ccc1CNC[C@@H]1CCC(=O)N1` [Example 347, 8-(2,2′-Dichloro-3′-(6-methoxy-5-(((((S)-5-oxopyrrolidin-2-yl)methyl)amino)methyl)pyridin-2-yl)-[1,1′-biphenyl]-3-yl)-3-(((3R,4R)-3,4-dihydroxypyrrolidin-1-yl)methyl)-4H-pyrido[1,2-a]pyrimidin-4-one] belongs 530 nM; to `COc1nc(-c2cccc(-c3cccc(-c4ccn5c(=O)c(CN[C@H]6C[C@](C)(O)C6)c(OC)nc5c4)c3Cl)c2Cl)ccc1CNC[C@@H]1CCC(=O)N1` [Example 348, 8-(2,2′-Dichloro-3′-(6-methoxy-5-(((((S)-5-oxopyrrolidin-2-yl)methyl)amino)methyl)pyridin-2-yl)-[1,1′-biphenyl]-3-yl)-3-((((1r,3r)-3-hydroxy-3-methylcyclobutyl)amino)methyl)-2-methoxy-4H-pyrido[1,2-a]pyrimidin-4-one], 2.2 nM; to `CNC(=O)C1(NCc2cc(=O)n3ccc(-c4cccc(-c5cccc(-c6ccc(CNC[C@@H]7CCC(=O)N7)c(OC)n6)c5Cl)c4Cl)cc3n2)CC1` [Example 349, (S)-1-(((8-(2,2′-Dichloro-3′-(6-methoxy-5-((((5-oxopyrrolidin-2-yl)methyl)amino)methyl)pyridin-2-yl)-[1,1′-biphenyl]-3-yl)-4-oxo-4H-pyrido[1,2-a]pyrimidin-2-yl)methyl)amino)-N-methylcyclopropanecarboxamide], 0.2 nM.
To `COc1nc(-c2cccc(-c3cccc(-c4cc5c(=O)n(C)c(CNC[C@H](C)O)nn5c4)c3Cl)c2Cl)ccc1CNC[C@@H]1CCC(=O)N1` [Example 350, 6-(2,2′-Dichloro-3′-(6-methoxy-5-(((((S)-5-oxopyrrolidin-2-yl)methyl)amino)methyl)pyridin-2-yl)-[1,1′-biphenyl]-3-yl)-2-((((S)-2-hydroxypropyl)amino)methyl)-3-methylpyrrolo[2,1-f][1,2,4]triazin-4(3H)-one] belongs 0.1 nM.

The IC50 is the concentration that inhibits the measured activity by half. Low values mean inhibition by little substance, high ones a need for much substance.
